According to US20100234467A1, “METHODS FOR IMPROVING BIOAVAILABILITY OF A RENIN INHIBITOR” (priority 2006, published 2010):

System: Caco-2 cell monolayers
Type: in vitro ADME
Text: Alternatively, the in vitro transporter affinity of a drug substance can be determined and approximated by a Caco-2 cell assay as described, e.g., in […] et al., Pharm. Act. Helv. 71, 309-327 (1996), or as illustrated herein in the Examples. The identification of the transporter protein and the efficacy of a compound to inhibit the efflux system involved may as well be determined in the Caco-2 cell assay. […] Caco-2 cell monolayers grown on PET filters for 21-25 days are used for the transport experiments. The flux of compounds across Caco-2 cell monolayers grown on PET filters as well as across PET filters alone without Caco-2 cells is determined as follows: […] To start the experiment, the medium in the donor compartment (0.35 mL for apical and 1.15 mL for basolateral sides) is replaced with donor solution (compound in HBSS, when relevant containing inhibitor of interest) pre-incubated at 37° C. Aliquots of 150 μL are removed from the donor and the acceptor side after about 1 and 120 min. Transport experiments in both apical-to-basolateral and basolateral-to-apical directions are performed in triplicate at 37° C. in an incubator without shaking. […] Radioactive samples are analyzed by liquid scintillation counting. All other non-radiolabeled samples are kept frozen at -20° C. until analysis by liquid chromatography/tandem mass spectrometry (LC-MS/MS). Transport values of the compounds tested are determined using the following equation (Artursson et al., Biochem. Biophys. Res. Comm. 175: 880-885, 1991): where Papp (cm/min) is the apparent permeability coefficient, ΔQ is the amount of compound found in the acceptor compartment at time t, Δt (min) is the incubation time period, C0 (μg/mL) is the initial concentration of the compound in the donor compartment and A (cm^2) is the surface area of the membrane. […] Under the conditions of this study, the LOQ of absolute radioactivity is 2 dpm for [^14C]-labeled Aliskiren corresponding to 12 nmol/L. Papp values are presented as means±standard deviations of the transport experiments performed (n=3). […]

Row | efflux substrate identification (Caco-2) | intrinsic permeability (human, Caco-2, 120 min) | apical to basolateral flux of marker (Papp, below threshold) (human, Caco-2, 120 min) | Structure (SMILES)
1 | substrate for a prominent efflux system | < 80% | – | COCCCOc1cc(C[C@@H](C[C@H](N)[C@@H](O)C[C@H](C(=O)NCC(C)(C)C(N)=O)C(C)C)C(C)C)ccc1OC [Aliskiren, (2S,4S,5S,7S)-5-amino-4-hydroxy-2-isopropyl-7-[4-methoxy-3-(3-methoxy-propoxy)-benzyl]-8-methyl-nonanoic acid (2-carbamoyl-2-methyl-propyl)-amide hemifumarate]
2 | – | – | < 3e-05 cm/min | OC[C@@H](O)[C@@H](O)[C@H](O)[C@H](O)CO [Mannitol]
